What was measured:
Format in all cases: functional
Staphylococcus aureus = assay: Antibacterial activity against Staphylococcus aureus NCTC 8325 assessed as reduction in microbial growth
[1] = test system: Mycobacterium tuberculosis; assay: Antibacterial activity against Mycobacterium tuberculosis assessed as reduction in microbial growth
Enterococcus = assay: Antibacterial activity against vancomycin-resistant Enterococcus assessed as reduction in microbial growth

**Q.** Which MIC (Staphylococcus aureus) does the source give for `CC(=O)NC[C@H]1CN(c2ccc(N3CCOCC3)c(F)c2)C(=O)O1` [LINEZOLID] here?
**A.** 1 µg/mL

**Q.** `CN[C@H](CC(C)C)C(=O)N[C@H]1C(=O)N[C@@H](CC(N)=O)C(=O)N[C@H]2C(=O)N[C@H]3C(=O)N[C@H](C(=O)N[C@H](C(=O)O)c4cc(O)cc(O)c4-c4cc3ccc4O)[C@H](O)c3ccc(c(Cl)c3)Oc3cc2cc(c3O[C@@H]2O[C@H](CO)[C@@H](O)[C@H](O)[C@H]2O[C@H]2C[C@](C)(N)[C@H](O)[C@H](C)O2)Oc2ccc(cc2Cl)[C@H]1O` [VANCOMYCIN] was tested. Which MIC (Staphylococcus aureus) did it give?
**A.** 1.4 µg/mL

**Q.** How did the MIC (Staphylococcus aureus) turn out when `O=C(Nc1ccc2c(c1)OC(F)(F)O2)Nc1ccc(Cl)c(C(F)(F)F)c1` was run?
**A.** 0.18 µg/mL

**Q.** What about the MIC [1] of the same molecule?
**A.** 0.93 µg/mL

**Q.** And the MIC (Enterococcus)?
**A.** 1 µg/mL

From ChEMBL document CHEMBL4610080, “Natural Products as Sources of New Drugs over the Nearly Four Decades from 01/1981 to 09/2019” (2020)
